Values quoted from earlier work, collected in patent US20240093135A1, “BASE ELEMENT OF A MULTI-CHAMBER BIOCHIP, PRODUCTION OF THE MULTI-CHAMBER BIOCHIP, AND USE THEREOF FOR ESTABLISHING ORGAN AND DISEASE MODELS AND SUBSTANCE TESTS” (Dynamic42 GmbH, priority 2022, published 2024).

Conditions: PDMS chips, after 24 hours

CCCC1COC(Cn2cncn2)(c2ccc(Cl)cc2Cl)O1 (stereo not shown) [propiconazole]
detectable share of the starting concentration in the culture medium: less than 30%
